What was measured:
Assay in all cases: Histone peptide microarray
Assay type in all cases: binding, human
KDM5B (1) = conditions: GST-tagged KDM5B (1); sheet Array Heatmap; each array performed twice, total n = 4
Excerpt: (§1) To more comprehensively define the histone interactions of the 31 PHD readers identified from the domain microarray analyses, we probed each on an alternate microarray platform containing a library of 293 synthetic histone peptides with single or combinatorial PTMs (Additional file 2: Figure S4 and Additional file 3: Table S2).
(§2) The 31 GST-tagged PHD readers identified in the PHD finger domain array were expressed and purified as previously. Histone peptide arrays and peptide pulldown assays were conducted as recently described (specifically, the optimized protocol from Petell et al. for the former).
(§3) Supplementary file 13072_2020_328_MOESM3_ESM.xlsx: Additional file 3: Table S2. […] Excel Tab Peptide List is a compiled list of the entire 293 histone peptide library with amino acid sequence ranges. […] Each number corresponds to the peptide number designated in Peptide List. Excel Tab Average Signals is a compiled set of binding data: chromatin reader at 0.5 μM vs. entire 293 peptide library. Data is presented as the average and standard deviation of 4 replicates. The average signals are colored to indicate signal intensity with green being strong and white being weak/low. […] Key: red= stronger relative binding; blue = weaker relative binding. Excel Tab Array info summary is a table summarizing the domains, sequence coverage, array signal range, and noise for each of the GST-tagged readers assayed on the peptide microarrays.

KDM5A (3) = conditions: GST-tagged KDM5A (3); sheet Array Heatmap; each array performed twice, total n = 4
Excerpt: as §1, §2, §3

PHRF1 (RP) = conditions: GST-tagged PHRF1 (RP); sheet Array Heatmap; each array performed twice, total n = 4
Excerpt: as §1, §2, §3

SP140L = conditions: GST-tagged SP140L; sheet Array Heatmap; each array performed twice, total n = 4
Excerpt: as §1, §2, §3

KDM5A (1) = conditions: GST-tagged KDM5A (1); sheet Array Heatmap; each array performed twice, total n = 4
Excerpt: as §1, §2, §3

PHF21A = conditions: GST-tagged PHF21A; sheet Array Heatmap; each array performed twice, total n = 4
Excerpt: as §1, §2, §3

ING5 = conditions: GST-tagged ING5; sheet Array Heatmap; each array performed twice, total n = 4
Excerpt: as §1, §2, §3

PHF2 = conditions: GST-tagged PHF2; sheet Array Heatmap; each array performed twice, total n = 4
Excerpt: as §1, §2, §3

ING3 = conditions: GST-tagged ING3; sheet Array Heatmap; each array performed twice, total n = 4
Excerpt: as §1, §2, §3

CHD4 (PPCC) = conditions: GST-tagged CHD4 (PPCC = Dual PHD + Dual Chromodomain); sheet Array Heatmap; each array performed twice, total n = 4
Excerpt: as §1, §2, §3

KDM7A = conditions: GST-tagged KDM7A; sheet Array Heatmap; each array performed twice, total n = 4
Excerpt: as §1, §2, §3

KDM5B (3) = conditions: GST-tagged KDM5B (3); sheet Array Heatmap; each array performed twice, total n = 4
Excerpt: as §1, §2, §3

AIRE (PP) = conditions: GST-tagged AIRE (PP); sheet Array Heatmap; each array performed twice, total n = 4
Excerpt: as §1, §2, §3

ING4 = conditions: GST-tagged ING4; sheet Array Heatmap; each array performed twice, total n = 4
Excerpt: as §1, §2, §3

DPF2 (PPC2W2) = conditions: GST-tagged DPF2 (PPC2W2 = Dual PHD + C2W2-type Zn-finger); sheet Array Heatmap; each array performed twice, total n = 4
Excerpt: as §1, §2, §3

DIDO1 = conditions: GST-tagged DIDO1; sheet Array Heatmap; each array performed twice, total n = 4
Excerpt: as §1, §2, §3

BAZ2B = conditions: GST-tagged BAZ2B; sheet Array Heatmap; each array performed twice, total n = 4
Excerpt: as §1, §2, §3

RAG2 = conditions: GST-tagged RAG2; sheet Array Heatmap; each array performed twice, total n = 4
Excerpt: as §1, §2, §3

KDM4C (TTP) = conditions: GST-tagged KDM4C (TTP = Tandem Tudor domain + PHD); sheet Array Heatmap; each array performed twice, total n = 4
Excerpt: as §1, §2, §3

PHF8 = conditions: GST-tagged PHF8; sheet Array Heatmap; each array performed twice, total n = 4
Excerpt: as §1, §2, §3

ING2 = conditions: GST-tagged ING2; sheet Array Heatmap; each array performed twice, total n = 4
Excerpt: as §1, §2, §3

BPTF (PB) = conditions: GST-tagged BPTF (PB = PHD + Bromodomain); sheet Array Heatmap; each array performed twice, total n = 4
Excerpt: as §1, §2, §3

PHF23 = conditions: GST-tagged PHF23; sheet Array Heatmap; each array performed twice, total n = 4
Excerpt: as §1, §2, §3

MORC3 (CW) = conditions: GST-tagged MORC3 (CW = CW-type Zn-finger); sheet Array Heatmap; each array performed twice, total n = 4
Excerpt: as §1, §2, §3

ING1 = conditions: GST-tagged ING1; sheet Array Heatmap; each array performed twice, total n = 4
Excerpt: as §1, §2, §3

MLL5 = conditions: GST-tagged MLL5; sheet Array Heatmap; each array performed twice, total n = 4
Excerpt: as §1, §2, §3

PHF13 = conditions: GST-tagged PHF13; sheet Array Heatmap; each array performed twice, total n = 4
Excerpt: as §1, §2, §3

CHD5 (PCC) = conditions: GST-tagged CHD5 (PCC = PHD + Dual Chromodomain); sheet Array Heatmap; each array performed twice, total n = 4
Excerpt: as §1, §2, §3

TAF3 = conditions: GST-tagged TAF3; sheet Array Heatmap; each array performed twice, total n = 4
Excerpt: as §1, §2, §3

TRIM66 (PB) = conditions: GST-tagged TRIM66 (PB = PHD + Bromodomain); sheet Array Heatmap; each array performed twice, total n = 4
Excerpt: as §1, §2, §3

CHD5 (PPCC) = conditions: GST-tagged CHD5 (PPCC = Dual PHD + Dual Chromodomain); sheet Array Heatmap; each array performed twice, total n = 4
Excerpt: as §1, §2, §3

| Substance | Array Heatmap signal (histone peptide microarray) (KDM5B (1)) | Array Heatmap signal (histone peptide microarray) (KDM5A (3)) | Array Heatmap signal (histone peptide microarray) (PHRF1 (RP)) | Array Heatmap signal (histone peptide microarray) (KDM5A (1)) | Array Heatmap signal (histone peptide microarray) (PHF21A) | Array Heatmap signal (histone peptide microarray) (ING5) | Array Heatmap signal (histone peptide microarray) (PHF2) | Array Heatmap signal (histone peptide microarray) (ING3) | Array Heatmap signal (histone peptide microarray) (CHD4 (PPCC)) | Array Heatmap signal (histone peptide microarray) (KDM7A) | Array Heatmap signal (histone peptide microarray) (KDM5B (3)) | Array Heatmap signal (histone peptide microarray) (AIRE (PP)) | Array Heatmap signal (histone peptide microarray) (ING4) | Array Heatmap signal (histone peptide microarray) (DPF2 (PPC2W2)) | Array Heatmap signal (histone peptide microarray) (DIDO1) | Array Heatmap signal (histone peptide microarray) (BAZ2B) | Array Heatmap signal (histone peptide microarray) (RAG2) | Array Heatmap signal (histone peptide microarray) (KDM4C (TTP)) | Array Heatmap signal (histone peptide microarray) (PHF8) | Array Heatmap signal (histone peptide microarray) (ING2) | also measured |
| --- | --- | --- | --- | --- | --- | --- | --- | --- | --- | --- | --- | --- | --- | --- | --- | --- | --- | --- | --- | --- | --- |
| H3K4me3 + S10p: H3 1-20 | 0.7367 | 0.9343 | 0.4961 | 0.4961 | 0.4924 | 0.452 | 0.6926 | 0.5974 | 0.5979 | 0.6944 | 0.6326 | 0.4865 | 0.5113 | 0.6728 | 0.8088 | 0.4888 | 0.5128 | 0.6416 | 0.7298 | 0.7902 | Array Heatmap signal (histone peptide microarray) (SP140L): 0.3516; Array Heatmap signal (histone peptide microarray) (BPTF (PB)): 0.4763; Array Heatmap signal (histone peptide microarray) (PHF23): 0.7051; Array Heatmap signal (histone peptide microarray) (MORC3 (CW)): 0.8974; Array Heatmap signal (histone peptide microarray) (ING1): 0.7399; Array Heatmap signal (histone peptide microarray) (MLL5): 0.8699; Array Heatmap signal (histone peptide microarray) (PHF13): 0.6968; Array Heatmap signal (histone peptide microarray) (CHD5 (PCC)): 0.823; Array Heatmap signal (histone peptide microarray) (TAF3): 0.4497; Array Heatmap signal (histone peptide microarray) (TRIM66 (PB)): 0.6387 |
| H3K4me1 + K9ac + K14ac + K18ac: H3 1-20 | 0.6974 | 0.582 | 0.6901 | 0.5061 | 0.4842 | 0.3909 | 0.5275 | 0.5358 | 0.5742 | 0.3735 | 0.5937 | 0.4902 | 0.4842 | 0.8362 | 0.6756 | 0.6125 | 0.2881 | 0.5283 | 0.4393 | 0.6379 | Array Heatmap signal (histone peptide microarray) (CHD5 (PPCC)): 0.5902; Array Heatmap signal (histone peptide microarray) (BPTF (PB)): 0.3783; Array Heatmap signal (histone peptide microarray) (PHF23): 0.5995; Array Heatmap signal (histone peptide microarray) (MORC3 (CW)): 0.6558; Array Heatmap signal (histone peptide microarray) (ING1): 0.5616; Array Heatmap signal (histone peptide microarray) (MLL5): 0.5474; Array Heatmap signal (histone peptide microarray) (PHF13): 0.6456; Array Heatmap signal (histone peptide microarray) (CHD5 (PCC)): 0.872; Array Heatmap signal (histone peptide microarray) (TAF3): 0.2961; Array Heatmap signal (histone peptide microarray) (TRIM66 (PB)): 0.6139 |
